PubChem BioAssay AID1918946 (Molecular Pharmacology Branch, DTP, NCI, 2023)
Values joined by “and” are separate entries in the source; they are usually repeats but may differ in a detail not shown here. Equal values may be shown once. Active and inactive are the calls of the source. Rule for the calls: active = viability on the fitted dose curve at most 10% of control; inactive = the rest.

Tested on: 885512-296-R-J2-PDC complex spheroid viability
Experiment: Anticancer human tumor 885512-296-R-J2-PDC patient-derived breast carcinoma cell line growth inhibition
Settings: for viability, T/C: stronger effect = lower value
Source text: Multicellular complex tumor spheroid response to LSD1 Inhibitor Iadademstat in combination with a variety of drugs and investigational agents in selected tumor cell lines
The current study was undertaken to assess response to LSD1 inhibitors in combination with standard-of-care drugs and investigational agents in solid tumor complex spheroid models as well as in the K-562 leukemia. Complex spheroids include a stromal component modeled by human endothelial cells (HUVEC) and fibroblasts modeled by human mesenchymal stem cells (MSCs). The concentration ranges selected for each drug and investigational agent were based upon clinically achievable concentrations if the clinical Cmax of the agent was known.
Compounds. The drugs and investigational agents used in this study are listed on Table 1. All of the agents used, including staurosporine (NSC755774) and gemcitabine (NSC613327), were obtained from the Developmental Therapeutics Program, NCI. FDA-approved anticancer drugs are available from the NCI at http://dtp.nci.nih.gov/branches/dscb/oncology_drugset_explanation.html. Drugs and investigational agents were >95% pure by proton nuclear magnetic resonance (NMR) and liquid chromatography/mass spectrometry (LC/MS). Stock solutions were prepared at 400x in DMSO, stored at -70 degrees C, and diluted in fresh medium prior to their use. The final concentration of DMSO in cell culture wells never exceeded 0.25% (v/v). The FDA-approved anticancer drug set is available from the Developmental Therapeutics Program at https://dtp.cancer.gov/organization/dscb/obtaining/available_plates.htm. All drugs and investigational agents were tested over a range starting from a high concentration at or near the clinical Cmax and decreasing in half-log increments. If the clinical Cmax for an agent had not been determined, the highest concentration tested was 10 microM.
Cell Lines. The patient-derived cancer cell (PDC) lines: 292921-168-R-J2-PDC, K24384-001-R-PDC, and 521955-158-R2-J5-PDC pancreatic carcinomas, 556581-035-R-J1 ovarian carcinoma, 324938-238-R-J1-PDC, 855422-203-R-J1-PDC and 883617-216-R-J1-PDC urothelial bladder carcinomas, 743489-274-T-PDC renal cell carcinoma, 138582-R-J1 Merkel cell tumor, K60290-347-R-J1 and K57222-313-R-J1-PDC glioblastomas, 653999-131-R-J2-PDC, LG0703-F948-PDC, and 349418-098-R-PDC non-small cell lung carcinomas, 885512-296-R-J2-PDC, 171881-019-R-J1-PDC breast carcinomas and 186277-243-T-J2-PDC and 233499-124-R-J2-PDC colon carcinomas were obtained from the NCI Patient-Derived Models Repository (PDMR, https://pdmr.cancer.gov). The established cell lines NCI/ADR-RES (RRID:CVCL_14520 and OVCAR-5 (RRID:CVCL_1628) ovarian carcinomas, 786-O (RRID:CVCL_1051) and A498 (RRID:CVCL_A498) renal cell carcinoma, NCI-H211 (ATCC, cat. CRL-5824; RRID:CVCL_1529), NCI-H196 (ATCC, cat. CRL-5823, RRID:CVCL_1509), SW 1271 (ATCC, cat. CRL-2177, RRID:CVCL_1716) and NCI-H1876 (ATCC, cat. CRL-5902, RRID:CVCL_1503) small cell lung carcinomas, MDA-MB-231 (RRID:CVCL_0062) and MDA-MB-468 (RRID:CVCL_0419)breast carcinomas (10-12). Pooled donor human umbilical vein endothelial cells (HUVEC, Lonza, cat. CC-2519) and human mesenchymal stem cells (hMSC, Lonza, cat. PT-2501) were purchased from Lonza (Walkersville, MD).
Cell Culture. All cells were maintained in an incubator at 37 degrees C and 5% CO2 with 95% humidity. The PDC lines were cultured according to standard operating procedures established by the NCI PDMR (https://pdmr.cancer.gov). Briefly all PDCs were thawed and cultured in Matrigel-coated flasks prepared with a working solution of 1X Ham's F-12 nutrient mix, without supplementation (Invitrogen, Waltham, MA, cat. 11765054), 100 U/mL penicillin-streptomycin (Invitrogen, cat. 15140122), and 2.5% Matrigel (Corning Inc., Corning, NY, cat. 354248) for the first three passages. […]
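Throughout, for IC50: spheroids exposed to agents for 7 days before viability read.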
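Throughout, for viability, T/C: spheroids exposed to agents for 7 days before viability read.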

Row | IC50 (curve of compound) | SMILES | viability, T/C (compound 0.00316 µM) | viability, T/C (compound 0.01 µM) | viability, T/C (compound 0.0316 µM) | viability, T/C (compound 0.1 µM) | viability, T/C (compound 0.316 µM) | viability, T/C (compound 1 µM) | viability, T/C (compound 0.00949 µM) | viability, T/C (compound 0.03 µM) | viability, T/C (compound 0.0949 µM) | viability, T/C (compound 0.3 µM) | also measured
1 | 0.000879 µM and < 0.000316 µM | CC(C)CC(NC(=O)C(Cc1ccccc1)NC(=O)c1cnccn1)B(O)O (stereo not given) | 2.61% and 0.22% | 4.07% and 0.18% | 0.12% and 0.1% | 3.52% and 0.14% | – | – | – | – | – | – | viability, T/C (compound 0.000316 µM): 99.8% and 17.9%
2 | 0.00645 µM and 0.00456 µM | CC(C)CC(NC(=O)CNC(=O)c1cc(Cl)ccc1Cl)B1OC(=O)CC(CC(=O)O)(C(=O)O)O1 (stereo not given) | 96.3% and 68.9% | 22.7% and 9.34% | 8.52% and 2.1% | 4.36% and 0.41% | – | – | – | – | – | – | viability, T/C (compound 0.000316 µM): 102% and 89.6%; viability, T/C (compound 0.001 µM): 84.1% and 89.2%
3 | 4.13 µM and > 10 µM | CC(C)c1c(-c2ccccc2)nc2c(C#N)c[nH]n2c1=O | – | – | 90.7% and 86% | 106% and 89.1% | 86.7% and 80.9% | 99.3% and 81% | – | – | – | – | viability, T/C (compound 3.16 µM): 92.9% and 87.5%; outcome (compound 10 µM): active; viability, T/C (compound 10 µM): 57%
4 | 3.31 µM and 1.32 µM | CC1(C)CCC(CN2CCN(c3ccc(C(=O)NS(=O)(=O)c4ccc(NCC5CCOCC5)c([N+](=O)[O-])c4)c(Oc4cnc5[nH]ccc5c4)c3)CC2)=C(c2ccc(Cl)cc2)C1 | – | – | 121% and 95.1% | 109% and 91% | 89.3% and 82% | 72.6% and 61.4% | – | – | – | – | viability, T/C (compound 3.16 µM): 63.1% and 19.3%; viability, T/C (compound 10 µM): 10.2% and 0.17%
5 | < 0.00316 µM | CC1COCCN1c1cc(-c2ccnn2C)c2ccnc(-c3ccn[nH]3)c2n1 (stereo not given) | – | 6.26% and 3.04% | 2.66% and 1.79% | 2.1% and 2.15% | 4.57% and 2.49% | 11.1% and 3.37% | – | – | – | – | –
6 | 0.151 µM and 0.317 µM | CC1COCCN1c1cc(C2(S(C)(=N)=O)CC2)nc(-c2ccnc3[nH]ccc23)n1 (stereo not given) | – | – | 89.7% and 84.5% | 69.7% and 90.6% | 14.4% and 49.3% | 7.6% and 9.02% | – | – | – | – | viability, T/C (compound 3.16 µM): 7.26% and 2.77%; viability, T/C (compound 10 µM): 7.13% and 1.85%
7 | 1.7 µM and 0.188 µM | CCN(c1cc(-c2ccc(CN3CCOCC3)cc2)cc(C(=O)NCc2c(C)cc(C)[nH]c2=O)c1C)C1CCOCC1 | – | – | – | – | – | – | 92.3% and 81.8% | 80.2% and 89.8% | 74.8% and 68% | 60.2% and 35.7% | viability, T/C (compound 0.949 µM): 76.2% and 18.2%; viability, T/C (compound 3 µM): 25.1% and 7.11%
8 | 0.00041 µM and 0.000678 µM | CC[C@@]1(O)C(=O)OCc2c1cc1n(c2=O)Cc2cc3c(CN(C)C)c(O)ccc3nc2-1 | 8.16% and 3.47% | 7.89% and 3.58% | 9.39% and 2.75% | 9.51% and 1.92% | – | – | – | – | – | – | viability, T/C (compound 0.000316 µM): 59.8% and 76.7%; viability, T/C (compound 0.001 µM): 16.6% and 36.4%
9 | < 0.000949 µM | CCc1c2c(nc3ccc(O)cc13)-c1cc3c(c(=O)n1C2)COC(=O)[C@]3(O)CC | – | – | – | – | – | – | 4.28% and 1.07% | 6.78% and 1.14% | 12.3% and 1.2% | 3.96% and 1.27% | viability, T/C (compound 0.000949 µM): 7.33% and 2.09%; viability, T/C (compound 0.003 µM): 4.69% and 2%
10 | 0.0505 µM and 0.047 µM | COc1cc(C2c3cc4c(cc3C(OC3OC5COC(C)OC5C(O)C3O)C3COC(=O)C23)OCO4)cc(OC)c1O (stereo not given) | – | – | – | – | – | – | 86.4% and 69.3% | 64.5% and 70.5% | 32.7% and 18.8% | 10.8% and 4.99% | viability, T/C (compound 0.949 µM): 6.14% and 3.49%; viability, T/C (compound 3 µM): 7.43% and 2.68%
11 | 0.00539 µM and < 0.00316 µM | COc1cc(Nc2ncc3c(n2)-c2ccc(Cl)cc2C(c2c(F)cccc2OC)=NC3)ccc1C(=O)O | 63.8% and 24.6% | 32.3% and 28.3% | 23% and 22.3% | 31.3% and 21% | 14.5% and 18.3% | 12% and 14.3% | – | – | – | – | –
12 | 1.08 µM and 0.98 µM | COc1ccc([C@@H](O)c2cc(-c3ncnc4cc(N5CCOCC5)ccc34)c(F)cc2Cl)nn1 | – | – | 83.8% and 95.7% | 96.8% and 82.8% | 81.9% and 61.3% | 52.8% and 50.3% | – | – | – | – | viability, T/C (compound 3.16 µM): 16.6% and 37.4%; viability, T/C (compound 10 µM): 10.3% and 9.6%
13 | 0.0159 µM and 0.0384 µM | Cn1ncnc1C1c2n[nH]c(=O)c3cc(F)cc(c23)NC1c1ccc(F)cc1 (stereo not given) | 81.5% and 89.5% | 58.5% and 70.7% | 36.5% and 55.6% | 15.5% and 29.8% | – | – | – | – | – | – | viability, T/C (compound 0.000316 µM): 113% and 78.9%; viability, T/C (compound 0.001 µM): 96.4% and 90.1%
14 | – | NC1CC1c1ccc(-c2cccc(O)c2)cc1 (stereo not given) | – | – | – | 133% | – | – | – | – | – | – | IC50 (compound alone, run of 02/01/2022): > 10 µM
15 | – | NC1CCC(NC2CC2c2ccccc2)CC1 (stereo not given) | – | – | – | – | 121% (2×) and 120% | – | – | – | – | – | IC50 (compound alone, run of 01/24/2022): > 10 µM
16 | < 0.00949 µM | NS(=O)(=O)OCC1CC(n2ccc3c(NC4CCc5ccccc54)ncnc32)CC1O (stereo not given) | – | – | – | – | – | – | 19.9% and 20.9% | 8.83% and 6.03% | 7.38% and 2.26% | 4.17% and 1.57% | viability, T/C (compound 0.949 µM): 8.44% and 0.8%; viability, T/C (compound 3 µM): 6.16% and 0.67%
17 | 0.062 µM and 0.0252 µM | Nc1ccccc1NC(=O)c1ccc(CNC(=O)OCc2cccnc2)cc1 | – | – | – | – | – | – | 92.7% and 64.7% | 63.2% and 46.1% | 44.3% and 33.1% | 22.8% and 16.8% | viability, T/C (compound 0.949 µM): 12.9% and 6.76%; viability, T/C (compound 3 µM): 10.3% and 0.3%
18 | < 0.000949 µM | Nc1ccn(C2OC(CO)C(O)C2(F)F)c(=O)n1 (stereo not given) | – | – | – | – | – | – | 5.82% and 2.16% | 8.91% and 2.45% | 10.2% and 2.79% | 8.07% and 3.31% | viability, T/C (compound 0.000949 µM): 5.28% and 20.8%; viability, T/C (compound 0.003 µM): 8.05% and 3%
19 | 0.0186 µM and 0.0639 µM | Nc1ncn(C2CC(O)C(CO)O2)c(=O)n1 (stereo not given) | 74.3% and 93.4% | 60.7% and 84.3% | 40.7% and 68.5% | 28.2% and 37.6% | 23.4% and 23.6% | 11.6% and 15.8% | – | – | – | – | –
20 | 0.00406 µM and 0.00491 µM | Nc1ncn(C2CC(O)C(CO)S2)c(=O)n1 (stereo not given) | – | – | – | – | – | – | 39.5% and 33.1% | 17.3% and 19.7% | 10.9% and 9.65% | 12% and 4.63% | viability, T/C (compound 0.000949 µM): 81.4% and 90.5%; viability, T/C (compound 0.003 µM): 52.7% and 62.2%
21 | 0.0457 µM and 0.026 µM | O=C(C=Cc1cccc(S(=O)(=O)Nc2ccccc2)c1)NO | – | – | – | – | – | – | 70% and 91.1% | 60.1% and 44% | 32.8% and 28.1% | 20.3% and 16.4% | viability, T/C (compound 0.949 µM): 13.7% and 2.92%; viability, T/C (compound 3 µM): 13.9% and 72.2%
22 | < 0.00316 µM | O=C(C=Cn1cnc(-c2cc(C(F)(F)F)cc(C(F)(F)F)c2)n1)NNc1cnccn1 | 31.1% and 23.7% | 5.75% and 8.41% | 3.88% and 2.23% | 6.09% and 0.68% | 7.95% and 0.57% | 6.27% and 0.53% | – | – | – | – | –
23 | 0.395 µM and 0.813 µM | O=C(c1cc(Cc2n[nH]c(=O)c3ccccc23)ccc1F)N1CCN(C(=O)C2CC2)CC1 | – | – | 81.2% and 95.5% | 92.8% and 89.7% | 57.2% and 74.8% | 17.2% and 46.9% | – | – | – | – | viability, T/C (compound 3.16 µM): 10.2% and 11.8%; viability, T/C (compound 10 µM): 7.83% and 6.41%
